Source: patent US3958014A, “Process for preparing injection-purpose fluorocarbon emulsion capable of carrying oxygen” (The Green Cross Corporation, priority 1970, dated 1976)

Tests used:
[1] = accumulation of intravenously injected fluorocarbon in liver and spleen; assay type: in vivo, laboratory animals; settings: for fluorocarbon administered remaining in the organs (liver and spleen): 8 weeks from administration
Description: (§1) The present invention is specific in a number of aspects both as to the nature of materials used and the particle sizes and the like, of the resulting emulsion. These parameters were not arrived at casually but rather were determined through a systematic course of investigations which are discussed below. Parameters not expressly discussed below will be apparent to the skilled worker and appropriate conditions will be appreciated. Fluorocarbon - The sole fluorocarbons applicable to the present invention are perfluorodecalin or perfluoromethyldecalin or their mixture. A surfactant or emulsifying agent is also used and surfactant capable of emulsifying and stabilizing these fluorocarbons is egg yolk lecithin and preferably in an amount of from about 3 W/V % to 5 W/V % based on emulsion. There are a number of good reasons for the specificity of the fluorocarbon compounds that are useful.
On the other hand when an emulsion of perfluorodecalin and perfluoromethyldecalin is injected into the veins, of laboratory animals their accumulated in the animal's liver and spleen is very small. For example, perfluorodecalin is as low as zero % and perfluoromethyldecalin is 1.5% even after 8 weeks.

[2] = test system: laboratory animal; assay: toxicity on injection of fluorocarbon emulsion into veins; assay type: in vivo, laboratory animals; settings: emulsion injected into the veins
Description: as §1

With perfluoromethyldecalin the “accumulation in the animal's liver and spleen” value (shortened to “accumulation”) ([1]; i.v. emulsion) was “very small” and the “fluorocarbon administered remaining in the organs (liver and spleen)” value (from here on “fluorocarbon administered remaining”) ([1]; i.v. emulsion) was 1.5%.
In the case of FC(F)(F)C(F)(F)C(F)(F)C(F)(F)N(C(F)(F)C(F)(F)C(F)(F)C(F)(F)F)C(F)(F)C(F)(F)C(F)(F)C(F)(F)F [FC-43, perfluorotributylamine], the “toxicity” value [2] is reported as “the toxicity resulting from the accumulation appears”, the “accumulation” value ([1]; i.v. emulsion) is reported as “most of these fluorocarbons are accumulated in the animal's liver and spleen” and the “fluorocarbon administered remaining” value ([1]; i.v. emulsion) is reported as “up to 40%”.
With FC(OC(F)(F)C(F)(OC(F)(F)C(F)(OC(F)(F)C(F)(OC(F)(F)C(F)(F)C(F)(F)F)C(F)(F)F)C(F)(F)F)C(F)(F)F)C(F)(F)F (centres unmarked) [Freon E4, 2-monohydro-nonacosafluoro3,6,9,12-tetraoxa-5,8,11-trimethylpentadecane] the “toxicity” value [2] was “the toxicity resulting from the accumulation appears”, the “accumulation” value ([1]; i.v. emulsion) was “most of these fluorocarbons are accumulated in the animal's liver and spleen” and the “fluorocarbon administered remaining” value ([1]; i.v. emulsion) was “up to 40%”.
In the case of FC1(F)C(F)(F)C(F)(F)C2(F)C(F)(F)C(F)(F)C(F)(F)C(F)(F)C2(F)C1(F)F (centres unmarked) [perfluorodecalin], the “accumulation” value ([1]; in vivo, iv) is reported as “very small”.
With FC(F)(F)C(F)(F)C(F)(F)C(F)(F)C1(F)OC(F)(F)C(F)(F)C1(F)F (centres unmarked) [FX-80, perfluorobutyltetrahydrofuran] the “lung hazard” value [2] was “a remarkable lung hazard appears” and the “toxicity” value [2] was “its toxicity is quite high”.
